# Results published in patent publication US11014952B2, “Stable hydrolysis-resistant synthetic polyribosylribitolphosphate derivatives as vaccines against Haemophilus influenzae type b” (MAX-PLANCK-GESELLSCHAFT ZUR FÖRDERUNG DER WISSENSCHAFTEN …, priority 2016, dated 2021).
# What was measured:
# [1] = Stability in basic medium (0.1 M NaOH); format: physicochemical; conditions: for cleaved completely after: aqueous basic conditions as applied in Example H-1 (0.1 M NaOH)
# Experimental: Stability study of the inventive saccharides is critical for the development of stable liquid Hib glycoconjugate vaccines. As a control we examined first the stability and cleavage of Hib polyribosylribitolphosphate capsular polysaccharide (CPS). Accordingly, Hib CPS was fragmented using standard procedures as described in Vaccine, 2000, 18, 1982-1993: 1 mg Hib CPS in 0.43 mL of 0.1 M NaOH, 20 h. Fragments obtained after purification (filtered through 30 kDa Amicon filters followed by desalting) were analyzed by ^1H NMR, HPLC and HRMS.
# The stability of dimer 16 was further investigated under aqueous basic conditions as applied in Example H-1. From the HPLC chromatogram in FIG. 13D it was concluded that dimer 16 got cleaved completely after 4 days, while the natural Hib CPS got already cleaved completely within 20 hours.
# The stability of tetramer 29 was further investigated under aqueous basic conditions as applied in Example H-1. From the HPLC chromatogram in FIG. 13A it was concluded that tetramer 29 got cleaved completely after 4 days, while the natural Hib CPS got already cleaved completely within 20 hours.
# [2] = Stability in presence of aluminum hydroxide (Alhydrogel), aluminum phosphate, phosphate buffer or water, HPLC; format: physicochemical; conditions: for cleavage to smallest fragments observed after: Alhydrogel
# Experimental: Having established the stability data of the control Hib CPS, then the stability of Hib CPS in aluminum hydroxide was investigated, where it is known to be unstable in a vaccine formulation {0.5 mg Hib CPS, 3 mL Alhydrogel® (Brentag) and 22 mL milli-Q water} at various temperatures {37° C. (A1) and rt (A3)}. At 37° C. cleavage to smallest fragments were observed after 2 days and at rt this pattern was observed after day 7 (FIG. 6). From this experiment it was confirmed that, Hib CPS decomposes to 2 and 3-O phosphate fragments in 2 to 7 days depending on temperature in Aluminum hydroxide the most common adjuvant used in commercial vaccines.
# Stability studies of synthesized 2′-methoxyribosylribitolphosphate dimer 16 were conducted in presence of various adjuvants. As a first step stability of 16 was studied using Al(OH)3, AlPO4 and water at various temperatures {37° C. (A1), 2-8° C. (A2), rt (A3) and 70° C. (A4)}.
# The amount of Al(OH)3 and AlPO4 used for this study was similar to the amount present in commercial Hib vaccines. Compounds 16 and 8 were used as reference since decomposition of dimer 16 should lead to monomer 8. Every 24 h 40 μL of solution was aliquoted from each vial and centrifuged for 4 min at 5000 rpm. Supernatant (25 μL) was taken for HPLC analysis. […] From this study it was clear that 2′-methoxyribosylribitol dimer 16 was stable at 37° C. (A1), 2-8° C. (A2), r.t. (A3) and at 70° C.
# Stability studies of synthesized 2′-methoxyribosylribitolphosphate tetramer bearing a linker 29 were conducted in presence of various adjuvants. As a first step stability of 29 was studied using Al(OH)3, phosphate buffer (PBS) and water at various temperatures {2-8° C. (A2), and r.t. (A3)}.
# The amount of Al(OH)3 used for this study was similar to the amount present in commercial Hib vaccines. Compounds 29, 16 and 8 were used as reference since decomposition of tetramer 29 should lead to dimer 16 and monomer 8. Every 24 h 40 μL of solution was aliquoted from each vial and centrifuged for 4 min at 5000 rpm. Supernatant (25 μL) was taken for HPLC analysis. […] From this study it was clear that 2′-methoxyribosylribitolphosphate tetramer 29 is stable in presence of Al(OH)3, in phosphate buffer (PBS) and in water at 2-8° C. (A2) and r.t. (A3).
# [3] = test system: anti-Hib antibodies present in human reference serum; test: Glycan array analysis with Hib human reference serum; format: binding; conditions: for inhibition of binding by natural Hib PRP: Hib PRP inhibitor present (FIG. 17A); for binding of anti-Hib antibodies to printed saccharide: no inhibitor (FIG. 17A)
# Experimental: (§1) Saccharides in PBS were printed on N-Hydroxy succinimide activated glass slides (CodeLink slides, Surmodics) using an S3 microarray spotter (Scienion). Slides were incubated overnight in a humidity saturated chamber, quenched for 2 h with 100 mM ethanolamine, 50 mM sodium phosphate, pH 7.5, washed with water and dried.
# (§2) For incubation, slides were blocked for 1 h with 3% (w/v) BSA-PBS, washed with PBS and water, and dried by centrifugation. A 64 well incubation grid was attached. Sera were diluted in 3% BSA-PBS, 0.1% (v/v) Tween-20, incubated at 37° C. for 15 min, and centrifuged for 2 min at 3220 rpm. Serum dilutions were applied to the slide and incubated for 1 h at room temperature. Wells were washed three times with PBS+0.1% Tween-20 (PBS-T). Secondary antibodies (anti-rabbit IgG FITC, anti-rabbit IgM AlexaFluor 647, anti-human IgG-Fc AlexaFluor 488 and IgM AlexaFluor 594) were incubated on the slides for 30 min at r.t. Wells were washed twice with PBS-T, the incubation grid was removed, and the slide washed with PBS and water. After drying by centrifugation, the slide was scanned using a GenePix 4300A (Molecular Devices) microarray reader.
# [4] = test system: anti-Hib antibodies in rabbit typing serum; test: Glycan array analysis with rabbit typing serum; format: binding; conditions: for inhibition of binding by natural Hib PRP: Hib PRP inhibitor present (FIG. 17B); for binding of anti-Hib antibodies to printed saccharide: no inhibitor (FIG. 17B)
# Experimental: as §1, §2
# [5] = test system: antibodies raised by immunization with compound 94; test: Glycan array: binding of printed saccharides to antibodies raised by immunization with compound 94; set-up: species or system rabbit; conditions: sera of rabbits immunized with conjugate 94 with and without Alhydrogel (FIG. 17C, D)
# Experimental: Four groups with four rabbits per each group were immunized in a prime-boost regime with unadjuvanted conjugate 94 containing 5 μg saccharide 29 or conjugate 94 (containing 5 μg Hib saccharide 29) adjuvanted with Alhydrogel. The negative control group received PBS/Alhydrogel only. The positive control group received the approved vaccine ActHIB® (5 μg PRP, corresponding to half the human dose), a conjugate of native PRP to tetanus toxoid (TT). Preimmune serum and antiserum of bleeding day 21 (following two immunizations) were taken and analyzed on a glycan array. The ActHIB-specific serum was obtained after three administrations in contrast to two immunisations of the HIB analogues of the present invention.
# as §1, §2
# The primary immune response was assessed by glycan array screening of serum samples retrieved at day 0, day 21 and day 35. 2′-Methoxyribosylribitolphosphate dimer 19, 2′-methoxyribosylribitolphosphate dimer 24, 2′-Methoxyribosylribitolphosphate tetramer 29, 2′-deoxyribosylribitolphosphate tetramer 53 and 2′-dimethyl-aminocarbonylribosylribitolphosphate 62 as well as natural Hib PRP were printed on NHS ester-activated microarray slides. After immunization with conjugate 94 adjuvanted with Alhydrogel and without adjuvant, antibodies of the IgG and IgM subtypes against the Hib PRP derivatives 19, 24, 29, 53 and 62 as well as against the natural Hib PRP polysaccharide in all immunized rabbits were detected.
Compound,cleaved completely after ([1]; HPLC) [days],inhibition of binding by natural Hib PRP [3],binding of anti-Hib antibodies to printed saccharide [3],inhibition of binding by natural Hib PRP [4],binding of anti-Hib antibodies to printed saccharide [4],antibodies of the IgG and IgM subtypes against the saccharide after immunization with conjugate 94 [5],also measured
2′-Methoxyribosylribitolphosphate tetramer [Compound 29],4,inhibits the binding,bind,inhibits the binding,bind,detected,"stability ([2]; Al(OH)3, phosphate buffer (PBS) and water, 2-8° C. (A2)): stable; decomposition after 7 days (HPLC) ([2]; Al(OH)3, phosphate buffer (PBS) and water, 2-8° C. and r.t.): no decomposition was observed; stability ([2]; Al(OH)3, phosphate buffer (PBS) and water, r.t. (A3)): stable"
2′-deoxyribosylribitolphosphate tetramer [Compound 53],–,not,bind,not,bind,detected,–
"COC1C(O)[C@@H](CO)O[C@H]1OCC(O)C(O)C(O)COP(=O)(O)OC1C(OC)[C@H](OCC(O)C(O)C(O)CO)O[C@@H]1CO (stereo partly drawn) [Compound 16, 2′-methoxyribosylribitolphosphate dimer]",4,–,–,–,–,–,"stability ([2]; Al(OH)3, AlPO4 and water, 2-8° C. (A2), 7 days): stable; stability ([2]; Al(OH)3, AlPO4 and water, 37° C. (A1), 7 days): stable; decomposition after 7 days (HPLC) ([2]; Al(OH)3, AlPO4 and water, 37° C., 2-8° C., rt and 70° C.): no decomposition was observed; stability ([2]; Al(OH)3, AlPO4 and water, 70° C., 7 days): stable; stability ([2]; Al(OH)3, AlPO4 and water, r.t. (A3), 7 days): stable"
"COC1C(O)[C@@H](CO)O[C@H]1OCC(O)C(O)C(O)COP(=O)(O)OC1C(OC)[C@H](OCC(O)C(O)C(O)COP(=O)(O)OCCCCCN)O[C@@H]1CO (stereo partly drawn) [Compound 19, 2′-Methoxyribosylribitolphosphate dimer]",–,inhibits the binding,bind,inhibits the binding,bind,detected,–
"COC1C(OP(=O)(O)OCCCCCN)[C@@H](CO)O[C@H]1OCC(O)C(O)C(O)COP(=O)(OCc1ccccc1)OC1C(OC)[C@H](OCC(O)C(O)C(O)CO)O[C@@H]1CO (stereo partly drawn) [Compound 24, 2′-methoxyribosylribitolphosphate dimer]",–,inhibits the binding,bind,inhibits the binding,bind,detected,–
"Hib polyribosylribitolphosphate capsular polysaccharide [Hib CPS, reference compound]",–,–,–,–,–,detected,"cleavage products in basic medium ([1]; 0.1 M NaOH, 20 h, 1H NMR, HPLC, HRMS): cleaved to its smallest 2 and 3-0 phosphate fragments; time to complete hydrolysis / cleavage under basic conditions ([1]; 0.1 M sodium hydroxide solution): ≤ 20 h; stability in basic aqueous media or in the presence of aluminum salts ([1]; basic aqueous media, suspensions with aluminum phosphate or aluminum hydroxide): hydrolyzes within one day; cleavage to smallest fragments observed after ([2]; 37° C.): 2 days; cleavage to smallest fragments observed after ([2]; rt): 7 days"
